From patent publication US20240335544A1, “M6PR CELL SURFACE RECEPTOR BINDING COMPOUNDS AND CONJUGATES” (LYCIA THERAPEUTICS, INC., priority 2021, published 2024)
Entries after “also recorded” stand apart in the source; their conditions may differ. Read-outs that look alike come from different tables or passages of the source.

Experiments:
[1] = test system: Jurkat cells; test: Conjugate-mediated uptake of IgG2a-Alexa488 into Jurkat cells; format: cell-based; settings: for uptake into Jurkat cells (cell fluorescence vs conjugate concentration): DAR 9-11 per conjugate
Procedure: The anti-IgG2a conjugates were bound to IgG2a-Alexa488, as follows: equal molar ratios of anti-IgG2a and IgG2a-Alexa488 were added in tissue culture media for 30 minutes at room temperature. The resulting anti-IgG2a:IgG2a antibody-Alexa488 compositions were added to Jurkat cells (100 k cells/50 ul per well, n=2), and Alexa488 fluorescence levels were measured (via Alexa488 measurement) at 1 hour and 24 hours by flow cytometry. As the fluorescently labelled target (IgG2a antibody) accumulates in cells, the fluorescence presents a way to measure total intracellular uptake by cells over time.

[2] = biological target: CI-M6PR (Homo sapiens, UniProt P11717); test: Human CI-M6PR binding assay (ELISA); set-up: purchased R&D 6418-GR-050
Chain of CI-M6PR (P11717 41-1365 limits assumed): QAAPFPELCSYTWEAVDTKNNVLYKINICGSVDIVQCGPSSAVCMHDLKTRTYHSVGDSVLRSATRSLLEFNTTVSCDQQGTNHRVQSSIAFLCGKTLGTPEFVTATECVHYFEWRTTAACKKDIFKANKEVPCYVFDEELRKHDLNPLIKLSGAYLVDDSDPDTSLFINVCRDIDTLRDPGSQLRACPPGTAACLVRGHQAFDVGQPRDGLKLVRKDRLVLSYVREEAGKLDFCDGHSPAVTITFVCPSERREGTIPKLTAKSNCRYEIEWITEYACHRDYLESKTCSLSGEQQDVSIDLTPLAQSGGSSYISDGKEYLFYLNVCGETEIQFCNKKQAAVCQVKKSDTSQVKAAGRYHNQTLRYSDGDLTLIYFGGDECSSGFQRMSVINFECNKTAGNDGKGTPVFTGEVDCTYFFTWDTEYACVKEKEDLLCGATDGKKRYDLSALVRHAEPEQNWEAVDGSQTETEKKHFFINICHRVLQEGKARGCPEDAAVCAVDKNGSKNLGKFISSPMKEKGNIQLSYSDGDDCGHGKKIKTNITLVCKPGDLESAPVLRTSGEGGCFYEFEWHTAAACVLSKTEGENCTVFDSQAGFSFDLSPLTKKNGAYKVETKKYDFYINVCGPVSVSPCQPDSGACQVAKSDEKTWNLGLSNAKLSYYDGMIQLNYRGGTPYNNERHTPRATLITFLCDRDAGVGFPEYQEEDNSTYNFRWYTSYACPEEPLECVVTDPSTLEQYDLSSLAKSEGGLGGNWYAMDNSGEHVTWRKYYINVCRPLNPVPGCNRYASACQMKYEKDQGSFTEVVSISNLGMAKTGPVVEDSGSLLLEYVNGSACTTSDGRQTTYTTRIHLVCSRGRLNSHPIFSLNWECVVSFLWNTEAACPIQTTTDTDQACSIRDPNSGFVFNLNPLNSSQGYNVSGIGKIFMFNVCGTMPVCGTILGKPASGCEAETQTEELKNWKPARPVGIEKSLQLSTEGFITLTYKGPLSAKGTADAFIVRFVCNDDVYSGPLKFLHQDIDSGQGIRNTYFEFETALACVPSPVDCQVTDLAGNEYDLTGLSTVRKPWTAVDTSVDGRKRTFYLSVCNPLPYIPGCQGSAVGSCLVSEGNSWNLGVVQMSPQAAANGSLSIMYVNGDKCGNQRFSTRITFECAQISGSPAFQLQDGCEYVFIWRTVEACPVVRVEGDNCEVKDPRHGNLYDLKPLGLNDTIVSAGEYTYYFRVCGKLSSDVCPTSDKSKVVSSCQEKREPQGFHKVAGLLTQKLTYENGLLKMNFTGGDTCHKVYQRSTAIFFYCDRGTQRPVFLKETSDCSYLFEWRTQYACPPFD
Procedure: Nunc black solid bottom MaxiSorp plates were allowed to incubate overnight at 4° C. coated with 1 μg/mL of recombinant human CI-M6PR protein (R&D, 6418-GR-050) in 50 μL PBS. The next day, coating was decanted and plates were washed 3× with PBS. Wells were blocked with 350 μL of 3% BSA-PBS for 1 hour at room temperature. […] 50 μL of diluted conjugates were added to the plate and allowed to incubate at room temperature for 2 hours. After incubation, solutions in plate were decanted and washed with 350 μL of 0.05% PBS-Tween20 three times, drying the plate each wash on a clean paper towel. 50 μL of peroxidase AffiniPure Mouse Anti-Human IgG (Jackson Immuno, 209-035-088) diluted in 3% BSA-PBS to […] was added to the plate and allowed to incubate for 1 hour at room temperature in the dark. After incubation, solutions in plate were decanted and washed with 350 μL of 0.05% PBS-Tween20 3 times, drying the plate each wash on a clean paper towel. […] 50 μL of QuantaBlu solution was added to wells and allowed to incubate for 5-10 minutes at room temperature. After incubation, plates were read on a Perkin Elmer EnVision using photometric 340 and Umbelliferone 460 filter sets for excitation and emission, respectively. Data analysis and non-linear curve-fitting was performed using GraphPad Prism.

[3] = test system: Jurkat cells; test: Uptake of IgE-Alexa488 target by omalizumab conjugates in Jurkat cells; format: cell-based; settings: 1 hour, FIGS. 15-17
Procedure: The omalizumab conjugates of Example 142 were bound to IgE-Alexa488 (prepared according to Example 144), as follows: equal molar ratios of omalizumab (anti-IgE) conjugate and IgE-Alexa488 were added in tissue culture media for 30 minutes at room temperature. The resulting anti-IgE conjugate:IgE antibody-Alexa488 compositions were added to Jurkat cells (100 k cells/50 ul per well, n=2), and Alexa488 fluorescence levels in the cells were measured at 1 hour by flow cytometry. As the fluorescently labelled target (IgE antibody) accumulates in cells, the fluorescence presents a way to measure total intracellular uptake by cells over time.

[4] = Serum pharmacokinetic analysis of rIgG1 (anti-IgG2a) antibody conjugates; format: in vivo, mice; settings: intravenous 10 μg/mouse, serum 0.5-24 h, compared to Compound I-7 conjugate
Procedure: A pharmacokinetic analysis of the rIgG1 (anti-IgG2a) antibody conjugates described in the previous example was performed in mice. In particular, […] mice were intravenously administered each rIgG1 antibody conjugate at 10 μg/mouse (5 mice per group). Blood was collected at 0.5, 1, 2, 6, and 24 hours and serum rIgG1 was analyzed using an ELISA kit (Abcam) according to the manufacturer's instructions. Samples were run across 3 different plates with unconjugated rIgG1 controls (UNLB-anti-IgG2a rIgG1) included on all 3 plates. FIGS. 8A-8C show the serum levels of anti-IgG2a conjugated to Compound I-7 (dar8) and (dar4) (FIG. 8A), anti-IgG2a conjugated to Compound I-10 and anti-IgG2a conjugated to Compound I-11 (FIG. 8B), and anti-IgG2a conjugated to Compound I-9 and anti-IgG2a conjugated to Compound I-12 (FIG. 8C) over time.

[5] = biological target: T1, M6PR (Domains I-9, R&D Systems) (Homo sapiens, UniProt P11717); test: General M6PR binding assay (fluorescence polarization); settings: Table 16F, unconjugated compounds, 100 nM M6PR, 1 nM probe, 2 hr incubation
T1 construct: with 100 nM M6PR (Domains I-9, R&D Systems) and 1 nM probe; purchased R&D Systems
T1 sequence (P11717 41-1365 limits assumed): as above
Procedure: M6PR binding was measured in black 96-well plates using a fluorescence polarization assay. A fluorescent probe consisting of a reference M6Pn ligand linked to Cy5 was synthesized. Test compounds were resuspended in DMSO and 3-fold serial dilutions were made at 100× final concentrations. Binding reactions were conducted in 100 μl final volume in 20 mM HEPES (pH 7.5) 100 mM NaCl 0.015% Tween-20 1% DMSO with 100 nM M6PR (Domains I-9, R&D Systems) and 1 nM probe. Fluorescence polarization was measured using Xex=620 nm, λem=688 nm on an Envision plate reader (Perkin Elmer) after 2 hr incubation time. Dose responses were conducted in duplicate and normalized to the response with DMSO (high) and 1 μM reference compound (low) on each plate. IC50 values were determined by fitting to 4-parameter curves in GraphPad Prism.

[6] = Table 16E, conjugate, m average DAR 9.5, read-out: EC50 in M6PR binding assay for conjugates of monovalent compounds of varying linker length and loading
[7] = antibody conjugate, average loading DAR 9.5, read-out: EC50 (nM) in M6PR binding assay

O=C(CCCCCc1cn(CCOCCOCCOCCOCCC(=O)Oc2c(F)c(F)c(F)c(F)c2F)nn1)Nc1ccc(O[C@H]2O[C@H](CCP(=O)(O)O)[C@@H](O)[C@H](O)[C@@H]2O)cc1 [513 (I-39)]
uptake into Jurkat cells (cell fluorescence vs conjugate concentration) ([1]; one hour incubation, FIG. 12): strong cell uptake | EC50 ([2]; antibody conjugate, average loading DAR 9, read-out: EC50 (nM) in M6PR binding assay): 0.19 nM

C[C@H](NC(=O)CCCn1cc(CCCCNC(=S)Nc2ccc(O[C@H]3O[C@H](CCP(=O)(O)O)[C@@H](O)[C@H](O)[C@@H]3O)cc2)nn1)C(=O)N[C@@H](C)C(=O)N[C@@H](C)C(=O)NCCOCCOCCOCCOCCC(=O)Oc1c(F)c(F)c(F)c(F)c1F [528 (I-51)]
uptake into Jurkat cells, average loading DAR9 versus DAR2 ([1]; one hour incubation, FIG. 12): greater uptake | uptake into Jurkat cells (cell fluorescence vs conjugate concentration) ([1]; one hour incubation, FIG. 12): strong cell uptake | EC50 ([2]; EC50 in M6PR binding assay for conjugates of compounds of varying multivalency, Table 16D, conjugate, m average loading DAR 2): 2.23 nM | EC50 ([2]; EC50 in M6PR binding assay for conjugates of monovalent compounds of varying linker length and loading, Table 16E, conjugate, m average DAR 2): 2.23 nM | EC50 ([2]; Table 16B, antibody conjugate, average loading DAR 8, read-out: EC50 in M6PR binding assay): 0.3 nM | EC50 ([2]; Table 16D, conjugate, m average loading DAR 9.5, read-out: EC50 in M6PR binding assay for conjugates of compounds of varying multivalency): 0.2 nM | EC50 [2, 6]: 0.2 nM | EC50 [2, 7]: 0.2 nM

O=C(NCCCCc1cn(CCOCCOCCOCCOCCC(=O)Oc2c(F)c(F)c(F)c(F)c2F)nn1)Nc1ccc(O[C@H]2O[C@H](CCP(=O)(O)O)[C@@H](O)[C@H](O)[C@@H]2O)cc1 [529 (I-38)]
uptake into Jurkat cells (cell fluorescence vs conjugate concentration) ([1]; one hour incubation, FIG. 12): strong cell uptake | relative cellular uptake activity of IgE-Alexa488, omalizumab conjugates of Table 15A [3]: comparable activity to a thiourea Z^3 analog (520 (I-7) with m=4) | EC50 [2, 6]: 0.19 nM | EC50 [2, 7]: 0.19 nM

O=C(CCN1C(=O)C=CC1=O)NCCOCCOCCOCCn1cc(CCO[C@H]2O[C@H](CCP(=O)(O)O)[C@@H](O)[C@H](O)[C@@H]2O)nn1 [Compound I-10]
half-life in mice [4]: longer half-life | intracellular uptake of IgG2a-Alexa488 into Jurkat cells ([1]; anti-IgG2a conjugates, 1 h and 24 h (FIGS. 9-10)): sufficiently robust uptake | binding affinity to M6PR compared to Compound I-7 ([2]; conjugates of ligand linkers): weaker binding affinity to M6PR compared to Compound I-7; also recorded: weaker binding affinity to M6PR than Compound I-7

C#CCCCCCOC[C@H]1O[C@H](OC)[C@@H](O[C@H]2O[C@H](CCP(=O)(O)O)[C@@H](O)[C@H](O)[C@@H]2O)[C@@H](O)[C@@H]1O [Compound I-108, (2-((2R,3S,4S,5S,6R)-6-(((2S,3S,4S,5S,6R)-6-((hept-6-yn-1-yloxy)methyl)-4,5-dihydroxy-2-methoxytetrahydro-2H-pyran-3-yl)oxy)-3,4,5-trihydroxytetrahydro-2H-pyran-2-yl)ethyl)phosphonic acid]
IC50 [5]: ≥ 500 nM

O=C(NCCCCc1cn(-c2cccnc2)nn1)Nc1ccc(C[C@H]2O[C@H](CCP(=O)(O)O)[C@@H](O)[C@H](O)[C@@H]2O)cc1 [Compound P5]
IC50 [5]: 100 to 500 nM
